In the experiment the test system is U87 MG/PER2-dLuc cells. Kind of experiment: cellular circadian rhythm assay with neurotoxicants in the presence of antioxidants. Format: cell-based, human. On the procedure:
Briefly, cultured U87 MG/PER2 -dLuc cells were seeded in 35-mm dishes at 3 × 10^5 cells/dish and incubated until 70–80% confluency was reached. The cells were FBS-starved for three days at 70% confluency and then synchronized with 50% horse serum (16050122; Gibco) (Balsalobre et al. [1998]). After decanting and washing, recording medium (EMEM with 20% of growing medium containing 5% FBS, 6.5 mM sodium bicarbonate, 10 mM HEPES buffer [pH 7.2], 0.1 mM luciferin [E1602; Promega], and 50 U/mL penicillin and 50 µg/mL streptomycin) was added. Subsequently, the cells were treated with each compound. The 35-mm dishes were sealed with a sterile glass cover slide using silicon grease and subjected to continuous monitoring with a LumiCycle 32™ (Actimetrics) for 5 days. The analytical method was optimized according to the instruction manual of the LumiCycle Analysis Software (Actimetrics). Using this software, data were detrended (running average), and best fits to a sine wave were estimated using the Levenberg–Marquardt algorithm for period, phase, amplitude, and damping rate measurements, as previously reported (Chen et al. [2012]; Fang et al. [2015], [2017]).
The cellular circadian rhythm was recorded as described above.

The results in this text go back to article PMC10965668, “Combined use of multiparametric high-content-screening and in vitro circadian reporter assays in neurotoxicity evaluation” (Archives of Toxicology, 2024).

Consider `CC(=O)N[C@@H](CS)C(=O)O` [NAC, N-acetyl-L-cysteine], for which the “restoration of circadian rhythm disrupted by CPF” value (1.5 µM CPF, 20 µM NAC, 12.5 µM (or 25 µM) MSC) is given as “restored the circadian rhythm”. Also, the “effect on circadian rhythm disrupted by MHg” value (2.0 µM MHg, co-treatment with NAC and MSC) is listed as “reduced the first high-altitude peak”. Moreover, the “restoration of cellular rhythm disrupted by DDT” value (10 µM DDT, co-treatment with NAC (10 or 20 µM) or MSC (12.5 or 25 µM)) is on record as “restored the cellular rhythm”. Besides, the “restoration of MPP + -disrupted rhythmicity” value (MPP + at LOAEL, restored rhythm not similar to that of control cells) is “restore the cellular circadian rhythm to a certain extent”.
